{"source": "patent US9243029B2", "about": "“Crystalline oxidized glutathione and production method therefor” (Kyowa Hakko Bio Co., Ltd., priority 2010, dated 2016)", "test": "Hygroscopic property (preservation stability) at 23° C., ambient pressure, humidity 70%", "format": "physicochemical", "details": "humidity of 70%", "excerpt": "Hereinafter, the preservation stability (hygroscopic property) of the crystal of oxidized glutathione according to the present invention will be described in detail with reference to Test Example."}
{"substance": "oxidized glutathione [Reference Example 1]", "values": [{"measurement": "Hygroscopic property (moisture absorption / change in water content)", "value": "markedly absorbed moisture"}, {"measurement": "Time until deliquesced", "value": 2, "unit": "days"}]}
